Experimental data: paper PMC8308672, “Bioactive Compounds from Euphorbia usambarica Pax. with HIV-1 Latency Reversal Activity” (Pharmaceuticals, 2021)

Columns and labels:
[1] = tested on: HIV-1 latency; parameters: method as in PMID 30944245; settings: through the PKC pathway; cited from earlier work
[2] = tested on: latent HIV; parameters: method as in PMID 30031972; settings: read-out: EC50, reactivation of latent HIV; cited from earlier work
[3] = tested on: HIV-1; settings: read-out: EC50, anti-HIV-1 activity; cited from earlier work
[4] = in vitro; type: cell-based, human; settings: human, J-Lat 10.6 cells; read-out: cellular CC50
Method: (§1) Figure 1 HIV-1 latency reversal activity of methanolic crude extract (EU), partitioned n-hexane (EU-H), dichloromethane (EU-C), ethyl acetate (EU-E), and water-soluble residue (EU-W) phases. (A) dose-response experiments conducted with Jurkat T cells that were latently infected with full-length HIV-1 reporter construct (J-Lat 10.6 cells), HIV-1 reactivation quantified as % of positive control (PMA); (B) cell viability of each sample at 10, 50, 100, 500, and 1000 μg/mL.
(§2) Jurkat cells with a full-length integrated HIV-1 provirus that have been modified to contain a GFP coding region in place of the env gene (J-lat 10.6 cells) were used for HIV-1 anti-latency activity, cytotoxicity, and cellular activation testing. All 31 compounds were tested at 1, 10, and 100 μM. […] These compounds were further tested at additional concentrations to determine dose response and toxicity curves (Figure 5A–F). Cell viability for all isolated compounds is presented in Figure S106 in the supplementary material.
(§3) After in vitro culture, J-lat cells were washed with phosphate-buffered saline (1× PBS) prior to staining with 0.1 µL fixable viability dye Live/Dead Aqua (Cat L34957, www.thermofisher.com) per 10^5 cells for 30 min at 4 °C. Simultaneously, J-lat cells were also stained with antibodies against CD69 conjugated to an APC fluorophore (APC anti-human CD69 antibody, biolegend.com). Cells were then washed and re-suspended in 1× PBS prior to flow cytometry acquisition evaluating for cellular viability, green fluorescent protein (GFP) expression, and CD69 expression. Flow cytometry was performed with a BD FACSCelesta or FACSCanoto flow cytometer with FACSDiva acquisition software (Becton Dickinson, Mountain View, CA) prior to analysis with FlowJo (TreeStar Inc., Ashland, OR, USA).
(§4) Isolated compounds were resuspended in dimethyl sulfoxide (DMSO; Sigma-Aldrich, Burlington, USA), at a concentration of 10 mM, and diluted with PBS, and tested with J-lat 10.6 cells at concentrations of 100, 10, and 1 μM. J-lat 10.6 cells were tested with compounds at a concentration of 2.5 × 10^5 cells/mL. […]

[5] = tested on: latent HIV-1; test: HIV-1 latency reversal activity, GFP expression of J-Lat 10.6 cells; type: cell-based; settings: for EC50: Human immunodeficiency virus 1, J-Lat 10.6, read-out: latency EC50, J-Lat 10.6 cells, HIV-1 reactivation dose-response; for HIV-1 latency reversal activity of isolated compounds (in words): J-lat 10.6 cells, GFP expression, tested at 1, 10 and 100 μM
Method: as §1, §2
The HIV-1-infected Jurkat T cell line (J-Lat 10.6) was obtained in January 2019 from the NIH/ATCC HIV-1 Reagent Program (www.hivreagentprogram.org) and cultured in RPMI-based media supplemented with 10% fetal calf serum, 1% penicillin, and 1% streptomycin.
as §3
Isolated compounds were resuspended in dimethyl sulfoxide (DMSO; Sigma-Aldrich, Burlington, USA), at a concentration of 10 mM, and diluted with PBS, and tested with J-lat 10.6 cells at concentrations of 100, 10, and 1 μM. J-lat 10.6 cells were tested with compounds at a concentration of 2.5 × 10^5 cells/mL. We performed a minimum of three replicates of each condition for all experiments. Negative controls contained 1% DMSO to account for any effect of DMSO in the highest dilution of compounds.

[6] = tested on: PKC; test: Latency reversal activity in the presence and absence of pan-PKC inhibitor Gö6983; type: cell-based, human; settings: presence versus absence of pan-PKC inhibitor Gö6983
Excerpt: (§5) In order to determine whether our active compounds were acting through PKC, we evaluated the latency reversal activity of each of these compounds in the presence and absence of a pan-PKC inhibitor, Gö6983 (Figure 7).
Figure 7 Effect of PKC inhibition on HIV-1 reactivation of compounds 13–14, 21, 26, and 27.

[7] = tested on: J-Lat 10.6 cells; test: in vitro; type: cell-based, human; settings: read-out: cellular CC50
Method: as §1, §2, §3, §4

[8] = tested on: CD69; test: CD69 expression on J-lat cells (flow cytometry); type: cell-based, human
Method: as §5, §3

## CC1=C[C@]23C(=O)[C@@H](C=C(CO)[C@@H](O)[C@]2(O)[C@H]1O)[C@H]1[C@@H](C[C@H]3C)C1(C)C [ingenol]
[1]
  reactivation of HIV-1 latency (in words): significant effect in the reactivation of HIV-1 latency

## CC1=C[C@]23C(=O)[C@@H](C=C(CO)[C@@H](O)[C@]2(O)[C@H]1OC(=O)c1ccc2ccccc2c1)[C@H]1[C@@H](C[C@H]3C)C1(C)C [3-(2-naphthoyl)ingenol]
[2]
  EC50: 0.0024 µM

## ent-3-oxoatisan-16α,17-acetonide
[3]
  EC50: 24 µM

## CC(=O)O[C@@]12[C@H](OC(=O)c3ccccc3)[C@@H](C)[C@]3(O)[C@@H]4C=C(C)C(=O)[C@@H]4CC(CO)=C[C@H]3[C@@H]1C2(C)C [Compound 13, crotignoid K]
[4]
  CC50 at 24 h: 40 µM
[5]
  EC50: 3.75 µM
  HIV-1 latency reversal activity of isolated compounds (in words): showed HIV-1 latency reversal activity
[6]
  latency reversal activity when PKC was inhibited (in words): reduced efficacy

## CC(=O)O[C@@]12[C@H](OC(=O)c3ccccc3)[C@@H](C)[C@]3(O)[C@@H]4C=C(C)C(=O)[C@H]4CC(CO)=C[C@H]3[C@@H]1C2(C)C [Compound 14, 4β-Crotignoid K]
[4]
  CC50 at 24 h: 160 µM
[7]
  CC50: > 160 µM
[5]
  EC50: 0.015 µM
  HIV-1 latency reversal activity of isolated compounds (in words): showed HIV-1 latency reversal activity
[5]; J-Lat 10.6 cells, compared to crotignoid K (13)
  fold difference in selectivity index (CC50/EC50), 14 versus 13: ~ 1000 fold
[6]
  latency reversal activity when PKC was inhibited (in words): reduced efficacy

## C/C=C(/C)C(=O)O[C@H]1C(C)=C[C@]23C(=O)[C@@H](C=C(CO)[C@@H](O)[C@]12O)[C@H]1[C@@H](C[C@H]3C)C1(C)C [3-angeloylingenol]
[2]
  EC50: 0.0042 µM

## CC1=C2C=C3CC[C@@H]4C(C)(C)C(=O)CC[C@@]4(C)[C@@H]3C[C@H]2OC1=O [Compound 21, helioscopinolide E]
[5]
  HIV-1 latency reversal activity of isolated compounds (in words): showed HIV-1 latency reversal activity
[6]
  latency reversal activity when PKC was inhibited (in words): reduced efficacy

## CC(=O)O[C@@]12[C@H](OC(=O)c3ccccc3)[C@@H](C)[C@]3(O)[C@@H]4C=C(C)C(=O)C4=CC(C)=C[C@H]3[C@@H]1C2(C)C [Compound 12, 12-O-benzoyl-13-acetoxy-4,20-dideoxyphorbol-4-ene]
[5]
  HIV-1 latency reversal activity of isolated compounds (in words): showed HIV-1 latency reversal activity
[6]
  latency reversal activity when PKC was inhibited (in words): reduced efficacy

## COc1cc(C2OCC3C(c4cc(OC)c(O)c(OC)c4)OCC23)cc(OC)c1O (single isomer, unassigned; (+)) [Compound 26, (+)-syringaresinol]
[5]
  HIV-1 latency reversal activity of isolated compounds (in words): showed HIV-1 latency reversal activity
[8]
  CD69 expression (hallmark of PKC activation) (in words): did not increase CD69 expression
[6]
  latency reversal activity when PKC was inhibited (in words): did not show a significant reduction

## COc1cc([C@H]2Oc3c(OC)cc(/C=C/COC(C)=O)cc3[C@@H]2COC(C)=O)ccc1O [Compound 27, dimeric coniferyl acetate]
[5]
  HIV-1 latency reversal activity of isolated compounds (in words): showed HIV-1 latency reversal activity
[8]
  CD69 expression (hallmark of PKC activation) (in words): did not increase CD69 expression
[6]
  latency reversal activity when PKC was inhibited (in words): did not show a significant reduction

## CC1(C)OC[C@@]2(C[C@]34CC[C@H]2C[C@H]3[C@]2(C)CC[C@H](O)C(C)(C)[C@H]2CC4)O1 [euphorneroid D]
[3]
  EC50: 34 µM
